Laboratory results taken from publication PMC2223489, “Influence of single and multiple doses of amifostine on the efficacy and the pharmacokinetics of carboplatin in mice” (British Journal of Cancer, 1997).

Tests used:
[1] = Pharmacokinetics of total platinum in OVCAR-3-bearing nude mice (flameless AAS); assay type: in vivo; conditions: 0.5-24 h, carboplatin 60 mg kg-1 i.v. alone or + single dose amifostine 200 mg kg-1 i.p.
Method: (§1) British Joumal of Cancer (1997) 75(10), 1439-1446 ? […] The present study was carried out in well-established human ovarian cancer xenografts OVCAR-3, A2780 and FMa grown subcutaneously in the nude mouse. […] Its anti-tumour activity is assumed to result from the formation of platinum (Pt)-DNA adducts. The clinical use of carboplatin is limited by myelosuppression at a dose in the steep part of the dose-response curve. Therefore, much effort has been put into reducing the toxic side-effects to allow the administration of higher doses of carboplatin. Amifostine [Ethyol, WR-2721, S-2-(3-aminopropylamino)- ethylphosphorothioic acid], initially developed as a radioprotector, is approved for use as a protector against chemotherapy-induced toxicities in the USA and Europe (van der Vijgh and Peters, 1994). […] Such an approach is incorporated into clinical trials in which amifostine is given three times, just before and 2 and 4 h after carboplatin (Betticher et al, 1995; Vermorken et al, 1995). To date, clinical data are available for only a small number of patients. The Amifostine H2N - (CH2)3 - NH - (CH2)2 - S - P03H2 41 alkaline phosphatase WR-1 065 H2N - (CH2)3 - NH - (CH2)2 - S - H 4, oxidation Disulphides H2N - (CH2)3 - NH - (CH2)2 - S - S - R Figure 1 Structural formulas of amifostine, its active metabolite WR-1 065 and the disulphides [with WR-1 065 itself or with endogenous thiols (RSH)] […] However, the influence of multiple doses of amifostine on the anti-tumour activity of carboplatin was not studied. In the present experiments we investigated the influence of multiple doses of amifostine on the efficacy of carboplatin in tumour-bearing nude mice. We also investigated the influence of one and three doses of amifostine on the pharmacokinetics of carboplatin and the formation of Pt-DNA adducts in order to inter- pret the efficacy of carboplatin in the presence of amifostine. Furthermore, we determined the influence of a single dose and multiple doses of amifostine on the body temperature in nude mice.

DNA = experiment: Pt-DNA adduct levels in tissues of OVCAR-3-bearing nude mice (competitive ELISA); assay type: in vivo; conditions: carboplatin 60 mg kg-1 alone or plus one dose of amifostine
Method: as §1

[2] = tested on: human ovarian cancer xenograft OVCAR-3; experiment: Anti-tumour activity in s.c. OVCAR-3 xenografts in nude mice; assay type: in vivo; conditions: for Growth inhibition (%) (Day): weekly x 2; for Anti-tumour activity (in words): OVCAR-3, carboplatin at the MTD of 60 mg kg-1, amifostine given three times
Method: as §1

[3] = parameters: method as in Treskes et al, 1994; conditions: given on days 0 and 7; allowing 10% weight loss within 2 weeks after the first injection; ref Treskes et al, 1994; cited from earlier work
[4] = tested on: human ovarian cancer xenograft FMa; experiment: Anti-tumour activity in s.c. FMa xenografts in nude mice; assay type: in vivo; conditions: for Anti-tumour activity (in words): carboplatin at the MTD of 60 mg kg-1, amifostine given three times; for Growth inhibition (%) (Day): weekly x 2
Method: as §1

[5] = tested on: human ovarian cancer xenograft A2780; experiment: Anti-tumour activity in s.c. A2780 xenografts in nude mice; assay type: in vivo; conditions: for Growth inhibition (%) (Day): Table 1, carboplatin 60 mg kg-1 i.v. and/or amifostine 3 x 200 mg kg-1 i.p., weekly x 2; for Anti-tumour activity (in words): A2780, carboplatin at the MTD of 60 mg kg-1, amifostine given three times
Method: as §1

[6] = Body temperature (intrarectal) in non-tumour-bearing nude mice; assay type: in vivo; conditions: carboplatin 60 mg kg-1 alone; in the 24 h following injection
Method: British Joumal of Cancer (1997) 75(10), 1439-1446 ? […] The present study was carried out in well-established human ovarian cancer xenografts OVCAR-3, A2780 and FMa grown subcutaneously in the nude mouse. […] Its anti-tumour activity is assumed to result from the formation of platinum (Pt)-DNA adducts. The clinical use of carboplatin is limited by myelosuppression at a dose in the steep part of the dose-response curve. Therefore, much effort has been put into reducing the toxic side-effects to allow the administration of higher doses of carboplatin. Amifostine [Ethyol, WR-2721, S-2-(3-aminopropylamino)- ethylphosphorothioic acid], initially developed as a radioprotector, is approved for use as a protector against chemotherapy-induced toxicities in the USA and Europe (van der Vijgh and Peters, 1994). […] Such an approach is incorporated into clinical trials in which amifostine is given three times, just before and 2 and 4 h after carboplatin (Betticher et al, 1995; Vermorken et al, 1995). To date, clinical data are available for only a small number of patients. […] Furthermore, we determined the influence of a single dose and multiple doses of amifostine on the body temperature in nude mice.

[7] = Toxicity (weight loss, toxic deaths) in xenograft-bearing nude mice; assay type: in vivo, female athymic nude mice; conditions: weekly x 2
Method: as §1

[8] = OVCAR-3, day 28, Table 1, carboplatin 60 mg kg-1 i.v. and/or amifostine 3 x 200 mg kg-1 i.p.
[9] = OVCAR-3, day 35, Table 1, carboplatin 60 mg kg-1 i.v. and/or amifostine 3 x 200 mg kg-1 i.p.
[10] = day 29, Table 1, carboplatin 60 mg kg-1 i.v. and/or amifostine 3 x 200 mg kg-1 i.p.
[11] = day 36, Table 1, carboplatin 60 mg kg-1 i.v. and/or amifostine 3 x 200 mg kg-1 i.p.
[12] = A2780-bearing mice, Table 1, carboplatin 60 mg kg-1 i.v. and/or amifostine 3 x 200 mg kg-1 i.p.
[13] = FMa-bearing mice, Table 1, carboplatin 60 mg kg-1 i.v. and/or amifostine 3 x 200 mg kg-1 i.p.
[14] = OVCAR-3-bearing mice, Table 1, carboplatin 60 mg kg-1 i.v. and/or amifostine 3 x 200 mg kg-1 i.p.

| Compound | Growth inhibition (%) (Day) [2, 8] | Growth inhibition (%) (Day) [2, 9] | Anti-tumour activity (in words) [2] | Anti-tumour activity (in words) [4] | Growth inhibition (%) (Day) [4, 10] | Growth inhibition (%) (Day) [4, 11] | Growth inhibition (%) (Day) ([5]; A2780, day 11) | Growth inhibition (%) (Day) ([5]; A2780, day 14) | Anti-tumour activity (in words) [5] | Toxic deaths [7, 12] | Toxic deaths [7, 13] | Toxic deaths [7, 14] | other results |
| --- | --- | --- | --- | --- | --- | --- | --- | --- | --- | --- | --- | --- | --- |
| N.N.O=C([O-])C1(C(=O)[O-])CCC1.[Pt+2] [carboplatin, cis-diammine( 1,1 -cyclobutanedicarboxylato)plat- inum(II)] | 93.2 | 89.0 | active | active | 90.3 | 89.3 | 28.8 | 14.0 | no significant influence | 0/5 | 0/6 | 0/5 | AUC of total platinum in OVCAR-3 tumour tissue [1]: 146.8 nmol g(-1) x h; AUC of total platinum in kidney [1]: 368.3 nmol g(-1) x h; AUC of total platinum in liver [1]: 236.4 nmol g(-1) x h; AUC of total platinum in plasma ultrafiltrate [1]: 18.2 microM x h; Ratio AUC Pt-DNA adducts/AUC total platinum, kidney (DNA): 0.51; Ratio AUC Pt-DNA adducts/AUC total platinum, liver (DNA): 0.23; Ratio AUC Pt-DNA adducts/AUC total platinum, tumour tissue (DNA): 0.56; Growth inhibition (%) (Day) ([2]; OVCAR-3, day 20, Table 2, carboplatin 60 mg kg-1 i.v. alone or + amifostine 1 x 200 mg kg-1 i.p.): 88.5%; Growth inhibition (%) (Day) ([2]; OVCAR-3, day 27, Table 2, carboplatin 60 mg kg-1 i.v. alone or + amifostine 1 x 200 mg kg-1 i.p.): 92.4%; Maximum tolerated dose (MTD) of carboplatin [3]: 60 mg kg-'; Growth inhibition (%) (Day) ([4]; day 21, Table 2, carboplatin 60 mg kg-1 i.v. alone or + amifostine 1 x 200 mg kg-1 i.p.): 79.2%; Growth inhibition (%) (Day) ([4]; day 28, Table 2, carboplatin 60 mg kg-1 i.v. alone or + amifostine 1 x 200 mg kg-1 i.p.): 76.0%; Body temperature (not decreased) [6]: 37 0C; Toxic deaths ([7]; FMa-bearing mice, Table 2, carboplatin 60 mg kg-1 i.v. alone or + amifostine 1 x 200 mg kg-1 i.p.): 0/6; Toxic deaths ([7]; OVCAR-3-bearing mice, Table 2, carboplatin 60 mg kg-1 i.v. alone or + amifostine 1 x 200 mg kg-1 i.p.): 0/6 |
| NCCCNCCSP(=O)(O)O [amifostine, S-2-(3-aminopropylamino)-ethylphosphorothioic acid] | 0.0 | 0.0 | did not have any anti-tumour activity | did not have any anti-tumour activity | 20.3 | 21.5 | 31.1 | 17.4 | did not have any anti-tumour activity | 2/6 | 0/6 | 1/6 |  |
